This passage reports IC50 results from ChEMBL document CHEMBL3882244, “IL-8 Receptor Antagonists” (2007).

Assay [1] addresses T1, C-X-C chemokine receptor type 2 (Homo sapiens, UniProt P25025).
T1 sequence (P25025 whole entry): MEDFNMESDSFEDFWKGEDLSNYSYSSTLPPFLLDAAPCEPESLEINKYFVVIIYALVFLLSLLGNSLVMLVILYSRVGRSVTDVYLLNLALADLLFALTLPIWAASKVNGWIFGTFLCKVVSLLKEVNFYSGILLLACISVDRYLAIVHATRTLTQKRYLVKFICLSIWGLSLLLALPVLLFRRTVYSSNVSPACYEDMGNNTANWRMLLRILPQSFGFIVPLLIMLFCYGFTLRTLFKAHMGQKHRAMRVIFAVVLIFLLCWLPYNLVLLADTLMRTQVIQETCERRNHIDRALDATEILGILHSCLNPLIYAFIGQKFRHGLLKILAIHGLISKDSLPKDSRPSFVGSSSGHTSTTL
Nature of the assay: Antagonist activity at CXCR2 (unknown origin) expressed in CHO-K1 cells co-expressing Galpha-16 assessed as inhibition of IL8-induced calcium mobilization measured after 10 mins by Fluo-4AM dye based FLIPR assay. In kind it is functional, cell-based. On the technique in general: A change in cytosolic calcium serves as a functional read-out for many receptors and channels.

Assay [2] has as its target T1, C-X-C chemokine receptor type 2. Nature of the assay: Displacement of [125I]IL8 from recombinant human CXCR2 expressed in CHO cell membranes measured after 1 hr by TopCount scintillation counting method. A general note: Loss of bound radioactivity is the signal in a displacement assay; it reports binding, not function.
Assay [3] concerns Blood. Nature of the assay: Inhibition of GROalpha-induced CD11b integrin expression on human neutrophils in human whole blood pretreated for 10 mins followed by GROalpha challenge measured after 10 mins by FITC/PE staining based flow cytometry. Type of assay: functional, tissue-based. (A flow cytometer gives signals particle by particle.)

For `CCc1ccccc1NC(=O)Nc1ccc(Cl)c(S(=O)(=O)[C@@H]2CCNC2)c1O`, the IC50 – broadly, the concentration that gives 50% inhibition – in assay [1] was 5 to 600 nM; in assay [2] it was under 30000 nM. For the compound `O=C(Nc1cccnc1Cl)Nc1ccc(Cl)c(S(=O)(=O)C2CCNCC2)c1O`, the IC50 in assay [1] fell in the range of 5 to 600 nM.

Turning to `O=C(Nc1ccc(Cl)c(S(=O)(=O)C2CCNCC2)c1O)Nc1cccc2c1OC(F)(F)O2`, the IC50 in assay [1] was 5 to 600 nM; in assay [2], under 30000 nM. On to `CCOC(=O)N1CCC(S(=O)(=O)c2c(Cl)ccc(NC(=O)Nc3cccc(F)c3Cl)c2O)CC1`, for which, in assay [1], the IC50 lay within 5 to 600 nM. With `Cc1c(F)cccc1NC(=O)Nc1ccc(Cl)c(S(=O)(=O)C2CNC2)c1O`, the IC50 in assay [1] was 5 to 600 nM; in assay [2] it was under 30000 nM. As to `O=C(Nc1ccccc1Oc1ccccc1)Nc1ccc(Cl)c(S(=O)(=O)[C@H]2CCNC2)c1O`, the half-maximal inhibitory concentration (IC50) was in the range of 5 to 600 nM in assay [1] and 500 to 2000 nM in assay [3]. With `O=C(Nc1ccc(Cl)c(S(=O)(=O)CC2CCNC2)c1O)Nc1cccc(F)c1Cl` (configuration not stated), in assay [1], the half-maximal inhibitory concentration (IC50) fell in the range of 5 to 600 nM. With `O=C(Nc1ccccc1Oc1ccccc1)Nc1ccc(Cl)c(S(=O)(=O)C2C[C@H]3CC[C@@H](C2)N3)c1O` (some centres not stated), the IC50 in assay [1] is 5 to 600 nM; in assay [2], under 30000 nM.

Regarding `O=C(Nc1ccc(Cl)c(S(=O)(=O)[C@H]2CCNC2)c1O)Nc1cccc(F)c1Cl`, the IC50 in assay [1] is 5 to 600 nM.

On to `O=C(Nc1ccccc1OC(F)(F)F)Nc1ccc(Cl)c(S(=O)(=O)[C@@H]2CCNC2)c1O`, for which the half-maximal inhibitory concentration (IC50) in assay [1] is 5 to 600 nM. Consider `O=C(Nc1ccc(Cl)c(S(=O)(=O)C2CCCNC2)c1O)Nc1cccc(Cl)c1Cl` (configuration not stated), for which the half-inhibitory concentration (IC50) is 5 to 600 nM in assay [1] and under 30000 nM in assay [2]. For `CCc1ccccc1NC(=O)Nc1ccc(Cl)c(S(=O)(=O)C2CCCNC2)c1O` (configuration not stated), the IC50 in assay [1] was in the range of 5 to 600 nM. Still for that read-out and setting: as for `O=C(Nc1ccccc1OC(F)(F)F)Nc1ccc(Cl)c(S(=O)(=O)C2CCNCC2)c1O`, the figure is 5 to 600 nM. For the compound `O=C(Nc1cccnc1Cl)Nc1ccc(Cl)c(S(=O)(=O)C2CCCNC2)c1O` (configuration not stated), the IC50 was in the range of 5 to 600 nM in assay [1] and 500 to 2000 nM in assay [3]. Turning to `CCc1ccccc1NC(=O)Nc1ccc(Cl)c(S(=O)(=O)C2CCNCC2)c1O`, the values for the concentration for half-maximal inhibition (IC50) in assay [1] and in assay [2] were 5 to 600 nM and under 30000 nM, respectively. Regarding `CCOC(=O)N1CCC(S(=O)(=O)c2c(Cl)ccc(NC(=O)Nc3cccc(F)c3C)c2O)CC1`, the IC50 in assay [1] lay within 5 to 600 nM.

In the case of `O=C(Nc1ccc(Cl)c(S(=O)(=O)C2C[C@H]3CC[C@@H](C2)N3)c1O)Nc1cccc(F)c1Cl` (some centres not stated), the IC50 in assay [1] was in the range of 5 to 600 nM.

Turning to `Cc1c(F)cccc1NC(=O)Nc1ccc(Cl)c(S(=O)(=O)[C@@H]2C[C@H]3CC[C@@H](C2)N3C)c1O`, the IC50 in assay [1] is 5 to 600 nM; in assay [2], under 30000 nM. Taken in the same sequence, the figures for `Cc1c(F)cccc1NC(=O)Nc1ccc(Cl)c(S(=O)(=O)CC2CCNC2)c1O` (configuration not stated) were 5 to 600 nM and under 30000 nM.

Consider `O=C(Nc1ccccc1Oc1ccccc1)Nc1ccc(Cl)c(S(=O)(=O)C2CCNCC2)c1O`, for which, in assay [1], the IC50 was in the range of 5 to 600 nM. For `O=C(Nc1cccnc1Cl)Nc1ccc(Cl)c(S(=O)(=O)C2C[C@H]3CC[C@@H](C2)N3)c1O` (some centres not stated), in assay [1], the IC50 was in the range of 5 to 600 nM. `O=C(Nc1cccnc1Cl)Nc1ccc(Cl)c(S(=O)(=O)[C@H]2CCCNC2)c1O`: the concentration for half-maximal inhibition (IC50) in assay [2] was under 30000 nM; in assay [3], 500 to 2000 nM. Take `O=C(Nc1ccc(Cl)c(S(=O)(=O)[C@@H]2CCNC2)c1O)Nc1cccc2c1OC(F)(F)O2`: in assay [1], the IC50 lay within 5 to 600 nM. Turning to `O=C(Nc1ccccc1OC(F)(F)F)Nc1ccc(Cl)c(S(=O)(=O)CC2CCNC2)c1O` (configuration not stated), the IC50 in assay [1] is 5 to 600 nM; in assay [2], under 30000 nM.

As for `O=C(Nc1ccccc1OC(F)(F)F)Nc1ccc(Cl)c(S(=O)(=O)C2CCCNC2)c1O` (configuration not stated), the IC50 in assay [1] was 5 to 600 nM. Regarding `O=C(Nc1ccc(Cl)c(S(=O)(=O)C2CNC2)c1O)Nc1cccc(F)c1Cl`, the half-maximal inhibitory concentration (IC50) in assay [1] lay within 5 to 600 nM. Take `Cc1c(F)cccc1NC(=O)Nc1ccc(Cl)c(S(=O)(=O)C2C[C@H]3CC[C@@H](C2)N3)c1O` (some centres not stated): the IC50 in assay [1] fell in the range of 5 to 600 nM.

With `O=C(Nc1cccnc1Cl)Nc1ccc(Cl)c(S(=O)(=O)C2CNC2)c1O`, the IC50 was 5 to 600 nM in assay [1] and under 30000 nM in assay [2]. As to `CCOC(=O)N1CCC(S(=O)(=O)c2c(Cl)ccc(NC(=O)Nc3ccccc3Oc3ccccc3)c2O)CC1`, the half-inhibitory concentration (IC50) was 5 to 600 nM in assay [1] and under 30000 nM in assay [2]. As for `O=C(Nc1ccc(Cl)c(S(=O)(=O)[C@H]2CCCNC2)c1O)Nc1cccc(F)c1Cl`, the IC50 in assay [1] was in the range of 5 to 600 nM; in assay [3], 500 to 2000 nM. Turning to `O=C(Nc1ccc(Cl)c(S(=O)(=O)[C@@H]2CCNC2)c1O)Nc1cccc(F)c1Cl`, the results for the 50% inhibitory concentration (IC50) in assay [1] and in assay [2] were 5 to 600 nM and under 30000 nM, respectively.

Regarding `O=C(Nc1ccc(Cl)c(S(=O)(=O)C2CCNCC2)c1O)Nc1cccc(F)c1Cl`, the results for the IC50 in assay [1], in assay [2] and in assay [3] were 5 to 600 nM, under 30000 nM and 500 to 2000 nM, respectively. `Cc1c(F)cccc1NC(=O)Nc1ccc(Cl)c(S(=O)(=O)C2CCNCC2)c1O`: the IC50 in assay [1] was 5 to 600 nM; in assay [2], under 30000 nM; in assay [3], 500 to 2000 nM.

For `Cc1c(F)cccc1NC(=O)Nc1ccc(Cl)c(S(=O)(=O)[C@H]2CCNC2)c1O`, the 50% inhibitory concentration (IC50) in assay [1] was in the range of 5 to 600 nM. Consider `O=C(Nc1cccnc1Cl)Nc1ccc(Cl)c(S(=O)(=O)[C@H]2CCNC2)c1O`, for which the 50% inhibitory concentration (IC50) in assay [1] is 5 to 600 nM; in assay [3], 500 to 2000 nM. For `Cc1c(F)cccc1NC(=O)Nc1ccc(Cl)c(S(=O)(=O)[C@H]2CCCNC2)c1O` [DANIRIXIN], in assay [3], the IC50 lay in the range of 500 to 2000 nM.
